According to patent publication US10555932B2, “Method of restoring analgesic efficacy of alpha2-adrenoceptor agonists in neuropathic pain treatment” (KOREA INSTITUTE OF SCIENCE AND TECHNOLOGY, priority 2016, dated 2020):
Structures can show the parent of a compound that is named as a salt.

Columns and labels:
[1] = system: mice having neuropathic pain induced by a spared nerve injury (SNI); details: for analgesic efficacy at the chronic stage of the neuropathic pain / analgesic efficacy at the earlier stage of the neuropathic pain: agonist alone; for analgesic efficacy upon co-administration of CCG 50014 (RGS4 inhibitor): at 14, 28, or even 56 days after SNI, CCG50014 intrathecally 5 minutes before agonist (FIGS. 3 and 4); for analgesic effect of 1 nmol at 14 days after SNI / analgesic effect at 28 days after SNI / analgesic effect at 56 days after SNI / analgesic effect at 14 days after SNI / higher dose needed at 56 days after SNI for analgesic effect similar to that at 14 days after SNI / neuropathic pain induced by SNI (withdrawal threshold): mouse; for analgesic effect of 1 nmol at 14 days after SNI / analgesic effect at 28 days after SNI / analgesic effect at 56 days after SNI / analgesic effect at 14 days after SNI / higher dose needed at 56 days after SNI for analgesic effect similar to that at 14 days after SNI: intrathecal; for analgesic effect of 1 nmol at 14 days after SNI: alone (FIGS. 5 and 6); for analgesic effect at 28 days after SNI / analgesic effect at 56 days after SNI / analgesic effect at 14 days after SNI / higher dose needed at 56 days after SNI for analgesic effect similar to that at 14 days after SNI: alone; for analgesic effect at 14 days after SNI: as doses increased; for higher dose needed at 56 days after SNI for analgesic effect similar to that at 14 days after SNI: relative to 1 nmol at 14 days; for neuropathic pain induced by SNI (withdrawal threshold): single intrathecal injection, agonist alone (FIGS. 1 and 2)
Source text: To prepare neuralgia-induced mouse models, mice having a genetic background of 129S4/SvJae×C57BL/6J were used. According to a modification of the method described in the related art, a spared nerve injury (SNI) of sciatic nerve was induced in the mice.
Briefly, the mice were anesthetized with 3% isoflurane in a mixture of N2O/O2 gas. At the right hindlimb, incision was made at a mid-thigh level, and peripheral branches (sural, common peroneal, and tibial nerves) of the sciatic nerve were exposed. Both tibial and common peroneal nerves were tightly ligated with 8.0 silk thread together, and a 1-2 mm section of the two nerves was removed. The sural nerve was carefully preserved by avoiding any nerve stretch or nerve contact with surgical tools. Muscle and skin were closed in two distinct layers with chromic catgut 6.0 and silk 6.0 suture, respectively. During recovery, animals were housed in clear plastic cages with a thick layer of sawdust bedding.
Clonidine (2-[(2,6-dichlorophenyl)amino-2-imidazoleine hydrochloride, alpha2AR agonist) was purchased from Sigma (St. Louis, Mo., USA). CCG50014 was diluted in 12% dimethyl sulfoxide (DMSO) in saline.
Each drug was administered by intrathecal injection based on the technique developed by Hylden and Wilcox. […] drugs were dissolved in 5 μl of vehicle. Briefly, for mouse intrathecal injections, a 30-gauge needle (length: 0.5 inch) connected to a 50 μl Hamilton syringe was inserted into the subarachnoid space between the lumbar vertebrae L5 and L6. A flick of the mouse tail provided a reliable indicator that the needle had penetrated the dura meter. The syringe was held in position for a few seconds after the injection of 5 μl/mouse.
To evaluate a degree of pain alleviation in each of the neuralgic mice, a degree of pain responses to mechanical stimuli was measured by measuring mechanical threshold based on the method described in the related art. In detail, mechanical withdrawal thresholds were determined for all mice at day 0 prior to neuropathic surgery in order to obtain normal baseline values of withdrawal threshold to mechanical stimuli. For 56 days post-SNI surgery, all experimental animals were behaviorally tested to confirm the development of mechanical allodynia. […] The test was performed using an ascending series of von Frey filaments (North Coast Medical, Morgan Hill, Calif.). Mice were placed in an acrylic cylinder (6.5 cm in diameter and 17 cm in height) on an elevated metal mesh grid and allowed to acclimate for 30 minutes before testing. Each monofilament (0.008 g, 0.02 g, 0.07 g, 0.16 g, 0.4 g, and 0.6 g) was applied 6 times in ascending order to the midplantar region of each hind paw of mouse. The monofilament that produced a paw withdrawal, flinch, or lick in 3 of 6 applications was defined as the 50% paw withdrawal threshold. The behavioral investigator was blinded to the treatment of animals during the experiments.
(§1) Results of each of the experiments above are expressed as means±SEM unless otherwise stated. Data analysis and statistical comparisons were performed using GraphPad Prism version 5.0 (GraphPad Software, San Diego, Calif.). Comparison between two groups was made using the Student's t-test. For multiple comparisons, ANOVA followed by post hoc Tukey test was performed. Differences with P<0.05 were considered significant.

[2] = system: systolic blood pressure (SBP); details: mouse
Experimental: To evaluate the induction of low blood pressure, systolic blood pressure (SBP) was measured using a non-invasive computerized tail-cuff system as previously described in the art (PowerLab system, ADI Instrument Pry Ltd., Chain Hills, NSW, Australia). Briefly, animals were acclimated for 30 minutes in a quiet test room prior to obtaining cardiovascular measurements. At the end of the 1 hour period, the SBP was measured. This experiment was repeated 3 times and the mean value for each animal was recorded. […] All cardiovascular measurements were obtained between 1 pm to 3 pm in order to avoid changes due to normal circadian rhythms.
as §1, with “Test results” for “Results of each of the experiments above”

motion performance = details: mouse
Experimental: To evaluate degradation of motion performance capability as one of side effects caused by the low blood pressure, rotarod test was performed on each of the mice administered with clonidine or the RGS4 inhibitor. […] All mice were tested 24 hours before the actual rotarod test, and mice that were able to remain on the rod for at least 120 seconds were included in the experiment. 30 minutes after clonidine injection, each animal was subsequently tested on the rotarod over 2-minutes period and their performance time on the bar (in seconds) was measured. The test was repeated 3 times and the mean value for each animal was recorded.
as §1, with “Test results” for “Results of each of the experiments above”

[3] = cited from earlier work

Compound	analgesic efficacy upon co-administration of dynasore ([1]; mouse SNI, 56th day after SNI, dynasore intrathecally 5 minutes before clonidine (FIG. 9))	analgesic efficacy at the chronic stage of the neuropathic pain ([1]; mouse SNI)	analgesic efficacy at the earlier stage of the neuropathic pain ([1]; mouse SNI)	analgesic efficacy upon co-administration of CCG 50014 (RGS4 inhibitor) ([1]; mouse SNI)	analgesic effect of 1 nmol at 14 days after SNI [1]	analgesic effect at 28 days after SNI [1]	analgesic effect at 56 days after SNI [1]	analgesic effect at 14 days after SNI [1]	higher dose needed at 56 days after SNI for analgesic effect similar to that at 14 days after SNI [1] [fold]	neuropathic pain induced by SNI (withdrawal threshold) [1]	low blood pressure side effect ([2]; 1 nmol in combination with the RGS4 inhibitor (FIG. 7))	blood pressure (SBP) change ([2]; clonidine 10 nmol alone (effective dose), 30 minutes after treatment (FIG. 7))	decreased motor performance side effect (motion performance; 1 nmol in combination with the RGS4 inhibitor (FIG. 8))	motor performance (rotarod) (motion performance; clonidine 10 nmol alone, 30 minutes after injection (FIG. 8))	side effect ([3]; healthy adult male, concentration gradient from about 150 μg to about 450 μg)	side effects ([3]; human, 1 μg/kg intravenously with lidocaine)	harmful side effect ([3]; human, 5 μg/kg orally)
Clc1cccc(Cl)c1N=C1NCCN1 [clonidine, 2-[(2,6-dichlorophenyl)amino-2-imidazoleine hydrochloride]	restored	lost the analgesic efficacy	exhibited the analgesic efficacy	maintained	significant analgesic effect	decreased	completely disappeared	potent analgesic effect	10	alleviated	no side effects	significant symptoms of low blood pressure	no side effects	rapidly decreased motor performance	no side effect	no statistically significant side effects	no harmful side effect
Cc1cccc([C@H](C)c2c[nH]cn2)c1C.Cl [dexmedetomidine, 4-[(1S)-1-(2,3-dimethylphenyl)ethyl]-1H-imidazole hydrochloride]	–	lost the analgesic efficacy	exhibited the analgesic efficacy	maintained	significant analgesic effect	decreased	completely disappeared	potent analgesic effect	3	alleviated	–	–	–	–	–	–	–
